In ChEMBL document CHEMBL1158849, “New bioactive triterpenoids from Melia volkensii” (J Nat Prod, 1998):
Converted amounts (≈) assume the structure as drawn.

How the values were obtained:
[1] = test system: PC-3; test: Cytotoxicity against human PC3 cells after 7 days by MTT assay; assay type: functional; details: PC-3, 168 h, read-out: ED50 (the source's name)
[2] = test system: MIA PaCa-2; test: Cytotoxicity against human MIAPaCa2 cells after 7 days by MTT assay; assay type: functional; details: MIA PaCa-2, 168 h, read-out: ED50 (the source's name)
[3] = Toxicity against brine shrimp larvae; assay type: organism-based; details: artemia, in vivo
[4] = test system: Aedes aegypti; test: Cytotoxicity against yellow fever mosquitoes; assay type: functional
[5] = test system: A549; test: Cytotoxicity against human A549 cells after 7 days by MTT assay; assay type: functional; details: A549, 168 h, read-out: ED50 (the source's name)
[6] = test system: MCF7; test: Cytotoxicity against human MCF7 cells after 7 days by MTT assay; assay type: functional; details: MCF7, 168 h, read-out: ED50 (the source's name)
[7] = test system: HT-29; test: Cytotoxicity against human HT-29 cells after 7 days by MTT assay; assay type: functional; details: HT-29, 168 h, read-out: ED50 (the source's name)
[8] = test system: A498; test: Cytotoxicity against human A498 cells after 7 days by MTT assay; assay type: functional; details: A498, 168 h, read-out: ED50 (the source's name)

| SMILES | EC50 [1] | EC50 [2] | LC50 [3] | LC50 [4] | EC50 [5] | EC50 [6] | EC50 [7] | EC50 [8] |
| --- | --- | --- | --- | --- | --- | --- | --- | --- |
| CC(=O)O[C@@H]1C[C@H](OC(=O)c2ccccc2)[C@@]2(C)[C@H]3[C@H](OC[C@]13C)[C@@H](O)[C@@]1(C)C3=CC[C@@H](c4ccoc4)[C@]3(C)CC[C@@H]12 [MELIAVOLKININ] | 1.02 µg/mL (≈ 1.77 µM) | 16.7 µg/mL (≈ 29.1 µM) | 5.37 µg/mL (≈ 9.34 µM) | 59.7 µg/mL (≈ 104 µM) | 25.4 µg/mL (≈ 44.1 µM) | 27.8 µg/mL (≈ 48.4 µM) | 28.1 µg/mL (≈ 48.8 µM) | 26.9 µg/mL (≈ 46.8 µM) |
| CC(=O)O[C@H]1C[C@@H](OC(=O)c2ccccc2)C(C)(C)[C@@H]2C[C@@H](OC(C)=O)[C@@]3(C)C4=CC[C@@H](C5COC(=O)C5)[C@]4(C)CC[C@@H]3[C@@]12C (some centres not stated) [MELIANIN C] | 0.473 µg/mL (≈ 0.762 µM) | 20.6 µg/mL (≈ 33.2 µM) |  |  | 21.9 µg/mL (≈ 35.2 µM) | 14.5 µg/mL (≈ 23.3 µM) | 18.1 µg/mL (≈ 29.1 µM) | 26.5 µg/mL (≈ 42.7 µM) |
| CC(=O)O[C@H]1C[C@@H](OC(=O)c2ccccc2)C(C)(C)[C@@H]2C[C@@H](OC(C)=O)[C@@]3(C)C4=CC(=O)[C@@H](C5COC(C)(C)C(=O)C(=O)C5)[C@]4(C)CC[C@@H]3[C@@]12C (some centres not stated) [16,23,24-TRIKETOMELIANIN B] | 2.1 µg/mL (≈ 2.98 µM) | 3.32 µg/mL (≈ 4.71 µM) |  |  | 18.2 µg/mL (≈ 25.8 µM) | 2.61 µg/mL (≈ 3.7 µM) | 6.36 µg/mL (≈ 9.02 µM) | 4.15 µg/mL (≈ 5.89 µM) |
| COc1cccc2c1C(=O)c1c(O)c3c(c(O)c1C2=O)C[C@@](O)(C(=O)CO)C[C@@H]3O[C@H]1C[C@H](N)[C@H](O)[C@H](C)O1 [DOXORUBICIN] | 0.0276 µg/mL (≈ 0.0508 µM) | 0.0133 µg/mL (≈ 0.0245 µM) |  |  |  | 0.253 µg/mL (≈ 0.465 µM) | 0.0351 µg/mL (≈ 0.0646 µM) | 0.00424 µg/mL (≈ 0.0078 µM) |
| CC(=O)O[C@H]1C[C@@H](OC(=O)c2ccccc2)C(C)(C)[C@@H]2C[C@@H](OC(C)=O)[C@@]3(C)C4=CC[C@@H](C5COC(C)(C)C(=O)C(=O)C5)[C@]4(C)CC[C@@H]3[C@@]12C (some centres not stated) | 0.0281 µg/mL (≈ 0.0407 µM) | 0.013 µg/mL (≈ 0.0188 µM) |  |  | 1.07 µg/mL (≈ 1.55 µM) | 6.13 µg/mL (≈ 8.87 µM) | 6.25 µg/mL (≈ 9.05 µM) | 4.78 µg/mL (≈ 6.92 µM) |
| CC(=O)O[C@H]1C[C@@H](OC(C)=O)[C@@]2(C)CO[C@@H]3[C@@H](O)[C@@]4(C)C5=CC[C@@H](c6ccoc6)[C@]5(C)CC[C@@H]4[C@]1(C)[C@@H]32 | 2.78 µg/mL (≈ 5.42 µM) | 3.06 µg/mL (≈ 5.97 µM) | 10 µg/mL (≈ 19.5 µM) | 29.2 µg/mL (≈ 56.9 µM) | 3.29 µg/mL (≈ 6.42 µM) | 2.42 µg/mL (≈ 4.72 µM) | 3.73 µg/mL (≈ 7.28 µM) | 3.35 µg/mL (≈ 6.53 µM) |
| CC(=O)O[C@H]1C[C@@H](OC(=O)c2ccccc2)C(C)(C)[C@@H]2C[C@@H](OC(C)=O)[C@@]3(C)C4=CC[C@@H](C5COC(C)(C)[C@@H](O)[C@H](O)C5)[C@]4(C)CC[C@@H]3[C@@]12C (some centres not stated) [MELIANIN B] | 0.393 µg/mL (≈ 0.566 µM) | 2.09 µg/mL (≈ 3.01 µM) | > 100 µg/mL | > 100 µg/mL | 1.68 µg/mL (≈ 2.42 µM) | 3.29 µg/mL (≈ 4.73 µM) | 2.15 µg/mL (≈ 3.09 µM) | 3.67 µg/mL (≈ 5.28 µM) |
